Measured values published in patent US8785499B2 (priority 2009, dated 2014).

The molecules below were run against baNadD (Bacillus anthracis, UniProt C3L5T6) (assay: biochemical).
Type: biochemical

Chain of baNadD (C3L5T6 whole entry, looked up): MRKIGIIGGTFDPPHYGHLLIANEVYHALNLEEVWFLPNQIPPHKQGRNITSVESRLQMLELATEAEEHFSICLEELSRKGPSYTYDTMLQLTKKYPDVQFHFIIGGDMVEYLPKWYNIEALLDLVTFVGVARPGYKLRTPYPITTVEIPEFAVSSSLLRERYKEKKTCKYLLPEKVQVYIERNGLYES

First: Nc1ccc(NC(=O)c2cc(Cl)ccc2O)c(Cl)c1 [compound 043]
Second: COC(=O)c1cc(O)c(C(=O)Nc2ccc(Cl)c(Cl)c2)s1 [compound 052]
The “[…]. anthracis” value of the first is lower: 2% for the first, 24% for the second.

`Oc1c(Br)cc(Cl)cc1/C=N/c1ccccn1` [compound 044] and `O=c1cc(O)c2sc(Nc3cccc(Cl)c3)nc2[nH]1` [compound 047] are the same in “[…]. anthracis” value: 0% for the first, 0% for the second.

Compared with `CCOc1cc(/C=N/O)cc(I)c1O` [compound 045], `CN1C(=O)S/C(=C\c2ccc(OCC(=O)O)c(I)c2)C1=O` [compound 069] is higher in “[…]. anthracis” value: 0% for the first, 7% for the second.

Going from `Cc1ccc(OCC(=O)Nc2nnc[nH]2)c(Br)c1` [compound 046] to `N/C(=N\OCC(=O)Nc1ccc([NH2+][O-])cc1)c1nonc1N` [compound 062], the “[…]. anthracis” value falls from 71% to 0%.

First: NS(=O)(=O)c1ccc(CCNC(=O)c2cccc(Cl)c2)cc1 [compound 048]
Second: NS(=O)(=O)c1ccc(NC(=O)CCc2ccccc2)cc1 [compound 081]
The “[…]. anthracis” value of the first is higher: 14% for the first, 0% for the second.

Going from `O=C(/C=C/c1ccc2c(c1)OCO2)Nc1ncc([N+](=O)[O-])s1` [compound 049] to `O=C(O)/C=C/c1ccc(S(=O)(=O)NCc2ccc3c(c2)OCO3)cc1` [compound 070], the “[…]. anthracis” value falls from 10% to 5%.

First: NS(=O)(=O)c1ccc(NC(=O)c2cc3cc(Br)ccc3oc2=O)cc1 [compound 050]
Second: NS(=O)(=O)c1ccc(NC(=S)Nc2ccc(Cl)cc2F)cc1 [compound 084]
The “[…]. anthracis” value of the first is higher: 38% for the first, 0% for the second.

`Nc1nonc1C(=O)NCCNS(=O)(=O)Cc1ccccc1` [compound 051] and `O=C(CSS(=O)(=O)O)NCCc1c[nH]c2ccccc12` [compound 072] are the same in “[…]. anthracis” value: 0% for the first, 0% for the second.

`CCc1c(O)nc(SC2CC(=O)N(c3ccccc3)C2=O)nc1O` (centres unmarked) [compound 053] and `Nc1nnc(SCC(=O)Nc2nccs2)n1-c1ccccc1` [compound 058] are the same in “[…]. anthracis” value: 0% for the first, 0% for the second.

Compared with `Nc1ccc(/C=C/c2cccc(C(=O)O)n2)cc1` [compound 054], `CSc1ccc(/C=N/c2ccc(S(N)(=O)=O)cc2)cc1` [compound 076] is lower in “[…]. anthracis” value: 27% for the first, 0% for the second.

Going from `CC(Sc1ccccc1)C(=O)Nc1ccccc1C(=O)O` (centres unmarked) [compound 055] to `Cc1ccc(C(=O)Nc2ccccc2)cc1S(=O)(=O)Nc1ccccn1` [compound 071], the “[…]. anthracis” value falls from 15% to 7%.

First: O=[N+]([O-])c1ccc(/C=N\NS(=O)(=O)c2ccc(Cl)cc2)o1 [compound 057]
Second: O=C(COc1ccc(Cl)cc1)N/N=C/c1cccs1 [compound 080]
The “[…]. anthracis” value of the first is higher: 28% for the first, 24% for the second.

`NS(=O)(=O)c1ccc2nc(NC(=O)c3ccncc3)sc2c1` [compound 059] and `NS(=O)(=O)c1ccc(NC(=O)CSc2ccc3ccccc3n2)cc1` [compound 073] are the same in “[…]. anthracis” value: 0% for the first, 0% for the second.

Going from `Oc1ccc(Br)cc1/C=N/Nc1nnn[nH]1` [compound 060] to `O=[N+]([O-])c1cc2c(cc1/C=N/Nc1nnn[nH]1)OCO2` [compound 063], the “[…]. anthracis” value rises from 0% to 81%.

`O=[N+]([O-])/C=C/Nc1cccc([N+](=O)[O-])c1` [compound 061] and `N=C(N)N/N=C/c1ccc([N+](=O)[O-])cc1` [compound 078] are the same in “[…]. anthracis” value: 0% for the first, 0% for the second.

Going from `CCn1c(SCC(N)=O)nnc1-c1ccc(Cl)cc1` [compound 065] to `Cc1cc(N/C=C2\N=C(c3ccc(Cl)cc3)OC2=O)no1` [compound 066], the “[…]. anthracis” value rises from 0% to 80%.

First: O=C(O)c1cc(C(=O)O)c2cc(Oc3ccc4nc(C(=O)O)cc(C(=O)O)c4c3)ccc2n1 [compound 067]
Second: O=C(CSc1nc2ccccc2o1)Nc1ccc(Cl)cn1 [compound 077]
The “[…]. anthracis” value of the first is higher: 1% for the first, 0% for the second.

Compared with `O=C1C/C(=C/NCCc2ccc(O)cc2)C(=O)N1` [compound 068], `O=C(NCCc1nc2ccccc2[nH]1)c1cccs1` [compound 079] is lower in “[…]. anthracis” value: 10% for the first, 0% for the second.

With `O=c1[nH]c2ccc(NC(=S)Nc3ccccc3)cc2[nH]1` [compound 083] the “[…]. anthracis” value was 0%.

Each molecule was assayed against ecNadD (Escherichia coli (strain K12), UniProt P0A752) (assay: biochemical).
Type: biochemical

Going from `Nc1ccc(NC(=O)c2cc(Cl)ccc2O)c(Cl)c1` [compound 043] to `COC(=O)c1cc(O)c(C(=O)Nc2ccc(Cl)c(Cl)c2)s1` [compound 052], the “[…]. coli” value falls from 18% to 16%.

`Oc1c(Br)cc(Cl)cc1/C=N/c1ccccn1` [compound 044] and `O=c1cc(O)c2sc(Nc3cccc(Cl)c3)nc2[nH]1` [compound 047] are the same in “[…]. coli” value: 17% for the first, 17% for the second.

Going from `CCOc1cc(/C=N/O)cc(I)c1O` [compound 045] to `CN1C(=O)S/C(=C\c2ccc(OCC(=O)O)c(I)c2)C1=O` [compound 069], the “[…]. coli” value falls from 17% to 13%.

Going from `Cc1ccc(OCC(=O)Nc2nnc[nH]2)c(Br)c1` [compound 046] to `N/C(=N\OCC(=O)Nc1ccc([NH2+][O-])cc1)c1nonc1N` [compound 062], the “[…]. coli” value falls from 17% to 14%.

First: NS(=O)(=O)c1ccc(CCNC(=O)c2cccc(Cl)c2)cc1 [compound 048]
Second: NS(=O)(=O)c1ccc(NC(=O)CCc2ccccc2)cc1 [compound 081]
The “[…]. coli” value of the first is higher: 16% for the first, 11% for the second.

Compared with `O=C(/C=C/c1ccc2c(c1)OCO2)Nc1ncc([N+](=O)[O-])s1` [compound 049], `O=C(O)/C=C/c1ccc(S(=O)(=O)NCc2ccc3c(c2)OCO3)cc1` [compound 070] is lower in “[…]. coli” value: 16% for the first, 13% for the second.

Compared with `NS(=O)(=O)c1ccc(NC(=O)c2cc3cc(Br)ccc3oc2=O)cc1` [compound 050], `NS(=O)(=O)c1ccc(NC(=S)Nc2ccc(Cl)cc2F)cc1` [compound 084] is lower in “[…]. coli” value: 16% for the first, 11% for the second.

Compared with `Nc1nonc1C(=O)NCCNS(=O)(=O)Cc1ccccc1` [compound 051], `O=C(CSS(=O)(=O)O)NCCc1c[nH]c2ccccc12` [compound 072] is lower in “[…]. coli” value: 16% for the first, 12% for the second.

Going from `CCc1c(O)nc(SC2CC(=O)N(c3ccccc3)C2=O)nc1O` (centres unmarked) [compound 053] to `Nc1nnc(SCC(=O)Nc2nccs2)n1-c1ccccc1` [compound 058], the “[…]. coli” value falls from 16% to 15%.

Going from `Nc1ccc(/C=C/c2cccc(C(=O)O)n2)cc1` [compound 054] to `CSc1ccc(/C=N/c2ccc(S(N)(=O)=O)cc2)cc1` [compound 076], the “[…]. coli” value falls from 15% to 12%.

First: CC(Sc1ccccc1)C(=O)Nc1ccccc1C(=O)O (centres unmarked) [compound 055]
Second: Cc1ccc(C(=O)Nc2ccccc2)cc1S(=O)(=O)Nc1ccccn1 [compound 071]
The “[…]. coli” value of the first is higher: 15% for the first, 12% for the second.

Compared with `O=[N+]([O-])c1ccc(/C=N\NS(=O)(=O)c2ccc(Cl)cc2)o1` [compound 057], `O=C(COc1ccc(Cl)cc1)N/N=C/c1cccs1` [compound 080] is lower in “[…]. coli” value: 15% for the first, 11% for the second.

First: NS(=O)(=O)c1ccc2nc(NC(=O)c3ccncc3)sc2c1 [compound 059]
Second: NS(=O)(=O)c1ccc(NC(=O)CSc2ccc3ccccc3n2)cc1 [compound 073]
The “[…]. coli” value of the first is higher: 15% for the first, 12% for the second.

Going from `Oc1ccc(Br)cc1/C=N/Nc1nnn[nH]1` [compound 060] to `O=[N+]([O-])c1cc2c(cc1/C=N/Nc1nnn[nH]1)OCO2` [compound 063], the “[…]. coli” value falls from 15% to 14%.

Compared with `O=[N+]([O-])/C=C/Nc1cccc([N+](=O)[O-])c1` [compound 061], `N=C(N)N/N=C/c1ccc([N+](=O)[O-])cc1` [compound 078] is lower in “[…]. coli” value: 14% for the first, 12% for the second.

First: CCn1c(SCC(N)=O)nnc1-c1ccc(Cl)cc1 [compound 065]
Second: Cc1cc(N/C=C2\N=C(c3ccc(Cl)cc3)OC2=O)no1 [compound 066]
The “[…]. coli” value of the first is higher: 14% for the first, 13% for the second.

Compared with `O=C(O)c1cc(C(=O)O)c2cc(Oc3ccc4nc(C(=O)O)cc(C(=O)O)c4c3)ccc2n1` [compound 067], `O=C(CSc1nc2ccccc2o1)Nc1ccc(Cl)cn1` [compound 077] is lower in “[…]. coli” value: 13% for the first, 12% for the second.

Compared with `O=C1C/C(=C/NCCc2ccc(O)cc2)C(=O)N1` [compound 068], `O=C(NCCc1nc2ccccc2[nH]1)c1cccs1` [compound 079] is lower in “[…]. coli” value: 13% for the first, 12% for the second.

For `O=c1[nH]c2ccc(NC(=S)Nc3ccccc3)cc2[nH]1` [compound 083], the “[…]. coli” value was 11%.
